The source of these data is patent US20160143862A1, “METHOD OF USING BETA-IONONE TO TREAT AND PREVENT DISEASE INDUCED BY PROPIONIBACTERIUM ACNES” (NATIONAL TAIWAN NORMAL UNIVERSTITY, priority 2014, published 2016).

In series [1] the test system is human monocytic THP-1 cells. The series can be described thus: cytotoxicity of beta-ionone on THP-1 cells (cellular viability).
Experimental: Human monocytic THP-1 cells (BCRC 60430, purchased from the Bioresource Collection and Research Center, Hsinchu, Taiwan) were cultured in RPMI 1640 medium and supplemented with 10% of fetal bovine serum, 0.05 mM of 2-mercaptoethanol, and 100 units/mL of penicillin G sodium, 100 μg/mL of streptomycin sulfate, and 250 ng/mL of amphotericin B at 37° C. in a 5% CO2 humidified environment.
THP-1 cells are seeded at 2×10^5 cells/well in a 96-well plate with FBS-free RMPI 1640 medium, and are stimulated with Propionibacterium acnes (multiplicity of infection=75) alone or in combination with various concentrations of 10, 20, 50 μM of beta-ionone for a 24-h incubation.
Series [2] deals with P. acnes-induced IL-8 production by THP-1 cells. The series can be described thus: inhibition of P. acnes-induced IL-8 production by THP-1 cells (enzyme immunoassay). It counts as cell-based, Human. The following applies: 10, 20, 50 μM; P. acnes MOI 75; 24-h incubation; p<0.001. How it is done: Propionibacterium acnes (BCRC 10723, purchased from the Bioresource Collection and Research Center, Hsinchu, Taiwan) was cultured in a brain heart infusion (BHI) broth. The bacteria were cultured in an anaerobic atmosphere using BBL GasPak systems.

Series [3] has as its system Propionibacterium acnes-induced ear swelling in ICR mice. The series can be described thus: P. acnes-induced mouse ear inflammation (ear thickness, biopsy weight, redness, neutrophil infiltration). It counts as in vivo. The source says: In the animal experiment of this embodiment, four-week-old male […] were purchased from the Experimental Animal Center of the National Taiwan University. After 1 week of adaptation, the mice were randomly divided into three groups of six animals each. The three groups of mice are, namely a blank control group of mice injected with a phosphate buffer solution (hereinafter referred to as “PBS-control”), an experimental group of mice injected with Propionibacterium acnes (hereinafter referred to as “P. acnes group”), and an experimental group of mice injected with Propionibacterium acnes and beta-ionone (hereinafter referred to as “P. acnes+beta-ionone group”). Mice were housed in plastic cages, under standard temperature-controlled conditions with a 12 h/12 h light-dark cycle and free access to food and water throughout the experiments. The experiments are each carried out by following the steps described below, so as to inject 10 µL of liquid (phosphate buffer solution (PBS), P. acnes, or P. acnes+beta-ionone) into the mice' ears, respectively. […] Mercy killing is carried out to all the mice 24 hours after the aforesaid injections, and then the ear's swelling induced by P. acnes was quantified as the percentage increases in the thickness and weight of the left ear biopsy. The thickness of the mice's ears is measured with a micrometer caliper. […]

Molecules are shown by their SMILES. Bounds are passed on as bounds.

As to `CC(=O)/C=C/C1=C(C)CCCC1(C)C` [beta-ionone, (3E)-4-(2,6,6-trimethylcyclohex-1-en-1-yl)but-3-en-2-one], the “cytotoxic effect on human monocytic THP-1 cells” value in series [1] (beta-ionone at 10, 20, 50 μM) was “does not have any cytotoxic effect”. Besides, in series [1] (cellular viability compared with untreated control, p<0.05, p<0.001), the “concentration with cytotoxic effect on THP-1 cells” value was no less than 100 µM. In addition, the “inhibitory effect on P. acnes-induced IL-8 production by THP-1 cells” value in series [2] is recorded as “marked inhibitive effect”. The “effect on redness, neutrophils infiltration and swelling (ear thickness and biopsy weight) caused by P. acnes” value in series [3] (50 μg/10 μL injected into ear with 6×10^7 CFU P. acnes, 24 hours, p<0.01, p<0.001) was “effective in reducing the redness, neutrophils infiltration, and swelling”. Besides, in series [3] (50 μg/10 μL injected into ear, 24 hours after injection, FIG. 9), the “redness and swelling of right ears (P. acnes + beta-ionone) versus left ears (P. acnes)” value was “significantly abated redness and swelling”.
